{
  "source": "patent US4221682A",
  "about": "“Tetrapeptides having analgesic activity” (American Home Products Corporation, priority 1979, dated 1980)",
  "key": {"rats [1]": {"tested_on": "rats", "settings": "peripheral (i.v.), rats (Bajusz et al.); cited from earlier work"}, "mouse vas deferens": {"tested_on": "mouse vas deferens", "settings": "cited from earlier work"}, "guinea pig ileum": {"tested_on": "guinea pig ileum", "settings": "cited from earlier work"}, "rats [2]": {"tested_on": "rats", "settings": "cited from earlier work; for analgesia: injection in the brain ventricle in rats, fully reversible by naloxone"}, "[3]": {"settings": "cited from earlier work; for activity when administered peripherally: peripheral administration"}, "opiate receptor": {"tested_on": "opiate receptor", "settings": "brain homogenates; cited from earlier work"}, "male rats": {"tested_on": "male rats", "assay": "rat-tail flick test of D'Amour and Smith, intravenous administration", "type": "in vivo", "settings": "for Positive Responses/Total Possible Response: all time points", "procedure": "The holders are situated so that a high intensity light beam will shine on the tip of the rats tail. The light beam intensity is adjusted so that normal rats respond by removing their tails from the light stimulus within from 3 to 8 seconds. The average of three time readings for removal of a rats tail from the light beam, taken 20 minutes apart serves as a pre-drug control. The rats are selected for use based upon control readings that agree within one second. The compounds of this invention are then administered intravenously and the test performed at 15, 30 and 60 minutes to determine the animals reaction time which is compared with the control average and tested for significance. The number of rats showing analgesia at each time period out of the total group for each dose administered is noted as a ratio and the number of positive responses observed is relative to the total number of challenges for each group of rats."}, "[4]": {"settings": "central administration (Pert et al.); cited from earlier work"}, "mice": {"tested_on": "mice", "settings": "central administration (Baxter et al.); cited from earlier work"}},
  "note": "Read-outs that look alike come from different tables or passages of the source. Positions of bridges follow the written chain, without caps; N, C: chain ends. Non-standard residues stand in square brackets, D forms with d. Residues, ends and D or L forms follow the SMILES beside them. Chains are numbered I, II in the order given. NMeF = CN[C@@H](Cc1ccccc1)C(=O)O",
  "data": [
    {"molecule": "H-Y[dM]GFP-NH2", "values": [
      {"measurement": "analgesic activity", "setting": "rats [1]", "value": "peripheral (i.v.) analgesic activity"}
    ]},
    {"molecule": "H-Tyr-Gly-Gly-Phe-Leu-OH [leucine-enkephalin]", "values": [
      {"measurement": "block of electrically evoked contractions", "setting": "mouse vas deferens", "value": "mimic the ability of morphine to block electrically evoked contractions"},
      {"measurement": "block of electrically evoked contractions", "setting": "guinea pig ileum", "value": "mimic the ability of morphine to block electrically evoked contractions"},
      {"measurement": "analgesia", "setting": "rats [2]", "value": "induce a profound analgesia"},
      {"measurement": "activity when administered peripherally", "setting": "[3]", "value": "inactive"},
      {"measurement": "inhibition of stereospecific receptor binding of 3H-naloxone", "setting": "opiate receptor", "value": "inhibit the stereospecific receptor binding"}
    ]},
    {"molecule": "H-Tyr-Gly-Gly-Phe-Met-OH [methionine-enkephalin]", "values": [
      {"measurement": "block of electrically evoked contractions", "setting": "mouse vas deferens", "value": "mimic the ability of morphine to block electrically evoked contractions"},
      {"measurement": "block of electrically evoked contractions", "setting": "guinea pig ileum", "value": "mimic the ability of morphine to block electrically evoked contractions"},
      {"measurement": "analgesia", "setting": "rats [2]", "value": "induce a profound analgesia"},
      {"measurement": "activity when administered peripherally", "setting": "[3]", "value": "inactive"},
      {"measurement": "inhibition of stereospecific receptor binding of 3H-naloxone", "setting": "opiate receptor", "value": "inhibit the stereospecific receptor binding"}
    ]},
    {"molecule": "CN(C(=O)CNC(=O)[C@@H](CSSC[C@@H](NC(=O)[C@@H](N)Cc1ccc(O)cc1)C(=O)NCC(=O)N(C)[C@@H](Cc1ccccc1)C(N)=O)NC(=O)[C@@H](N)Cc1ccc(O)cc1)[C@@H](Cc1ccccc1)C(N)=O", "note": "[Example 2, L-Tyrosyl-D-Cysteinyl-Glycyl-N-Methyl-L-Phenylalanyl Amide Disulfide Acetate] (I: H-Y[dC]G[NMeF]-NH2 / II: H-Y[dC]G[NMeF]-NH2; disulfide I:2-II:2)", "values": [
      {"measurement": "Respiration normal (number of rats)", "setting": "male rats; 1.0 mg/kg i.v.", "value": "5/5"},
      {"measurement": "dead (number of rats)", "setting": "male rats; 1.0 mg/kg i.v.", "value": "1/6"},
      {"measurement": "No. Analgesic/No. Tested", "setting": "male rats; 1.0 mg/kg i.v., 15 minutes", "value": "3/6"},
      {"measurement": "No. Analgesic/No. Tested", "setting": "male rats; 1.0 mg/kg i.v., 30 minutes", "value": "2/6"},
      {"measurement": "No. Analgesic/No. Tested", "setting": "male rats; 1.0 mg/kg i.v., 60 minutes", "value": "1/5"},
      {"measurement": "Positive Responses/Total Possible Response", "setting": "male rats; 1.0 mg/kg i.v.", "value": "6/17"},
      {"measurement": "Respiration very depressed (number of rats)", "setting": "male rats; 5.0 mg/kg i.v.", "value": "6/6"},
      {"measurement": "dead (number of rats)", "setting": "male rats; 5.0 mg/kg i.v.", "value": "0/6"},
      {"measurement": "No. Analgesic/No. Tested", "setting": "male rats; 5.0 mg/kg i.v., 15 minutes", "value": "6/6"},
      {"measurement": "No. Analgesic/No. Tested", "setting": "male rats; 5.0 mg/kg i.v., 30 minutes", "value": "5/6"},
      {"measurement": "No. Analgesic/No. Tested", "setting": "male rats; 5.0 mg/kg i.v., 60 minutes", "value": "5/6"},
      {"measurement": "Positive Responses/Total Possible Response", "setting": "male rats; 5.0 mg/kg i.v.", "value": "16/18"}
    ]},
    {"molecule": "H-Tyr-D-Ala-Gly-Phe-D-Met-NH2", "values": [
      {"measurement": "analgesic activity", "setting": "rats [2]; rats, centrally administered (Fredrickson)", "value": "produced analgesic activity"}
    ]},
    {"molecule": "H-Tyr-D-Ala-Gly-Phe-Met-NH2", "values": [
      {"measurement": "analgesia", "setting": "[4]", "value": "long lasting analgesic"}
    ]},
    {"molecule": "H-Tyr-D-Ala-Gly-Phe-D-Leu-OH", "values": [
      {"measurement": "antinociceptive and behavioral effects", "setting": "rats [2]; rats, central administration (Baxter et al.)", "value": "exhibit antinociceptive and behavioral effects"},
      {"measurement": "antinociceptive and behavioral effects", "setting": "mice", "value": "exhibit antinociceptive and behavioral effects"},
      {"measurement": "peripheral analgesic activity", "setting": "[3]; peripheral administration (Wei et al.; Romer et al.)", "value": "exhibit peripheral analgesic activity"}
    ]}
  ]
}
